Several values for one entry are separate records, joined by “and”; a condition that tells them apart may be missing. Equal entries are not always repeated. A value given as a limit tells only on which side of the number the result lay.

Assay [1] deals with P. aeruginosa PAO1 biofilm. Put plainly: LIVE/DEAD fluorescence assay of biofilm (epifluorescence microscopy). It counts as cell-based, Pseudomonas aeruginosa. The following applies: 0.5 mM, 24 h. As for the experimental part: The effect of the manganese complexes (the concentration of 0.5 mM) on the cell viability of P. aeruginosa in the biofilm layers using the LIVE/DEAD fluorescence assay was also assessed. The mixture of two fluorescent dyes, the dye SYTO-9, and the propidium iodide (included in the FilmTracer™ LIVE/DEAD Biofilm Viability Kit) was used to distinguish live and dead cells. The SYTO-9 can penetrate most membranes freely and is used for assessing total cell counts. In contrast, propidium iodide penetrates cells with compromised membranes, differentiating the damaged bacterial cells from a metabolic active, live cells. As a result, microorganisms with intact cell membranes stain fluorescent green, whereas microorganisms with damaged membranes stain fluorescent red. […] The presence of compounds in the culture caused the aggregation of cells into microcolonies, which was not observed in the control. This observation proves that bacteria were trying to protect themselves against the effect of the complexes tested.
Fluorescence microscopy was used to image live/dead cells in the P. aeruginosa PAO1 biofilm. First, the overnight culture of bacteria was diluted with fresh TSB medium (1:100). […]

Assay [2] concerns Escherichia coli ATCC 8739. Put plainly: broth microdilution MIC, E. coli. It counts as cell-based. The following applies: planktonic cells. On the procedure: (§1) The antimicrobial activities of the heteroaromatic ligands, Mn(II) complexes, and commercially available drug streptomycin were tested against standard bacterial strains: Staphylococcus aureus ATCC 6538P, Escherichia coli ATCC 8739, Pseudomonas aeruginosa PAO1 (biofilm model strain), and Pseudomonas aeruginosa LES B58 (clinical isolate). The P. aeruginosa PAO1 and LES B58 isolates were derived from the International Pseudomonas aeruginosa Reference Panel (http://bccm.belspo.be/about-us/bccm-lmg, accessed on 30 March 2021).
(§2) All bacteria species were cultivated in trypticase soy broth (TSB) medium (Biocorp, Warsaw, Poland) for 18 h at 37 °C with shaking (160 rpm). Overnight cultures of bacteria were diluted 1:100 into fresh TSB medium and then placed in each of the 96 wells of a microtiter transparent plate (Greiner, Monroe, NC, USA). The manganese(II) complexes—[Mn-pyOH-SO4]n, Mn-imCHO-NO3, Mn-imCHO-Cl, Mn-dipyCO-NO3—and the ligands—pyOH, pyCOOH—were prepared by dissolving compounds in distilled water. […] The starting stock solution was of 2-mM concentration.
(§3) The quantitative assay of the antibacterial activity was performed by the broth microdilution method, in 96-well microtiter plates, in order to establish the minimum inhibitory concentration (MIC). To this purpose, serial two-fold dilutions of the compounds ranging between 1 and 0.0625 mM were made. The details of the experiment were presented in our previous paper.
Background: In broth dilution the organism is exposed to a series of concentrations in liquid medium.

Assay [3] relates to Pseudomonas aeruginosa PAO1. Put plainly: broth microdilution MIC, P. aeruginosa PAO1. It counts as cell-based. The following applies: P. aeruginosa PAO1, planktonic cells. On the procedure: as §1, §2, §3
Assay [4] deals with primary human fibroblasts (VH10). As to the kind of experiment: cytotoxicity, MTT test. It counts as cell-based. The following applies: VH10 cells, 24 h, 15–1000 µM. As for the experimental part:
Primary human fibroblasts (VH10) were cultured at 37 °C in a humidified 5% CO2 atmosphere in plastic dishes in Dulbecco’s modified eagle medium (DMEM) supplemented with 10% heat inactivated fetal calf serum, 2 mM of l-glutamine, and antibiotics (100 units/mL penicillin and 100 µg/mL streptomycin). Cytotoxic properties of manganese complexes were measured by EZcount^TM MTT cell assay kit (HiMedia Laboratories Pvt., Ltd., Mumbai, India) in accordance with the manufacturer’s instructions. Cells were seeded into a 96-well plate and incubated with manganese complexes in the concentration range of 15–1000 µM for 24 h at 37 °C in a humidified atmosphere of 5% CO2. After incubation, a solution of MTT (3-[4,5-dimethylthiazol-2-yl]-2, 5-diphenyl tetrazolium bromide) at a concentration (1 mg/mL) was added to each well. After incubation at 37 °C for 4 h, 100 µL of 0.04 M HCl in isopropanol was added to each well and mixed thoroughly to dissolve the dark blue crystals. The measurement of absorbance of the solution related to the number of live cells was conducted on a TECAN Spark Microplate Reader (TECAN, Männedorf, Switzerland) at 570 nm with a reference wavelength 600 nm. All samples were tested in three independent experiments. Results were normalized to the control.
Inhibitory concentrations (IC50) represent the concentrations of the tested samples required to inhibit 50% cell proliferation and were calculated from the mean values of data from wells.
(Formazan colour is commonly taken as a measure of viable cells.)

The subject of assay [5] is P. aeruginosa PAO1 biofilm. Put plainly: biofilm formation, crystal violet staining assay. It counts as cell-based, Pseudomonas aeruginosa. The following applies: P. aeruginosa PAO1, vs untreated control. On the procedure:
as §2
To evaluate the effect of the compounds on P. aeruginosa biofilm formation, a crystal violet staining assay was used, following previously described protocols. The concentration of the investigated compounds was in the range 0.0625–1 mM. The amount of biofilm formed was determined by measuring the absorbance at λ = 595 nm with the Infinite M200 PRO microplate reader (Tecan, Männedorf, Switzerland). The measurement results, expressed in absorbance units, were converted into percentages to allow the comparison of numerical data obtained in different experiments.

As for `Cc1[nH]cnc1C=O.Cc1[nH]cnc1C=O.O=[N+]([O-])[O-].O=[N+]([O-])[O-].[Mn+2]` [Mn-imCHO-NO3], in assay [1], the “effect on biofilm structure and cell viability (LIVE/DEAD images)” value is recorded as “damage to the bacterial cell walls”. The MIC in assay [2] is > 1 mM and > 399 μg/ml. Moreover, the MIC in assay [3] was > 1 mM and > 399 μg/ml. The compound further displayed an IC50 in assay [4] of more than 1000 µM. In assay [5], the “% Inhibit. Biofilm (0.25 mM)” value is on record as 52% and the “% Inhibit. Biofilm (0.5 mM)” value came to 56%.

In the case of `O=[N+]([O-])[O-].O=[N+]([O-])[O-].OCc1ccccn1.OCc1ccccn1.[Mn+2]` [Mn-pyOH-NO3], in assay [1], the “effect on biofilm structure and cell viability (LIVE/DEAD images)” value is recorded as “damage to the bacterial cell walls”. Also, the MIC in assay [2] was > 1 mM and > 397 μg/ml; in assay [3], > 1 mM and > 397 μg/ml. The IC50 in assay [4] came to 1000 µM. For the same compound, the “% Inhibit. Biofilm (0.25 mM)” value in assay [5] stood at 49%. Besides, the “% Inhibit. Biofilm (0.5 mM)” value in assay [5] was found to be 54%.

What is called MIC is the lowest concentration found to suppress growth. High values mean a need for much substance, low ones inhibition by little substance. The term IC50 denotes the concentration needed to halve the response being measured. Higher therefore signals lower potency.

For the origin of these results see paper PMC8124774, “Tuning Anti-Biofilm Activity of Manganese(II) Complexes: Linking Biological Effectiveness of Heteroaromatic Complexes of Alcohol, Aldehyde, Ketone, and Carboxylic Acid with Structural Effects and Redox Activity” (International Journal of Molecular Sciences, 2021).
